Measured values published in patent US8937067B2, “Activators of human pyruvate kinase” (The United States of America, as represented by the …, priority 2008, dated 2015).

Key:
hPK-M2 [1] = target: T1, hPK-M2 (Homo sapiens, UniProt P14618); experiment: Luminescent pyruvate kinase-luciferase coupled assay (KinaseGlo); assay type: biochemical; details: for activation at 57 µM / hPK, M2 Max. Res.: KinaseGlo, % activation at 57 μM of compound; for activation at 57 µM: read-out: hPK, M2 Max. Res.; for Emax: read-out: maximum response
T1 sequence (P14618 whole entry): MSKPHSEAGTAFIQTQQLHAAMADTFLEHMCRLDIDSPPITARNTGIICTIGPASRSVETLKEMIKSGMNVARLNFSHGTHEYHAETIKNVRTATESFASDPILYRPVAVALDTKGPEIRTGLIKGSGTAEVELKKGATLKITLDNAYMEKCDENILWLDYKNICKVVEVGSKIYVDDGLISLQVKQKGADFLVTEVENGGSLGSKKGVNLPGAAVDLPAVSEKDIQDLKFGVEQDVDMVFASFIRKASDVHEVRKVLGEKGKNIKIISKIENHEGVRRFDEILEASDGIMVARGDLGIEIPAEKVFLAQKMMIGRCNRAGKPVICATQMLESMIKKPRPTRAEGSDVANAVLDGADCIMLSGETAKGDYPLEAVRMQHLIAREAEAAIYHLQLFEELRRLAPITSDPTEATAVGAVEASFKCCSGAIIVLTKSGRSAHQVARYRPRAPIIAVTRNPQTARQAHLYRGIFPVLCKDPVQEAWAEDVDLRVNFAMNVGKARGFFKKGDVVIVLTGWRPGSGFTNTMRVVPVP
How it was run: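 Activation assay with 0.1 mM ADP and 0.5 mM PEP in 50 mM imidazole pH 7.2, 50 mM KCl, 7 mM MgCl2, 0.01% tween 20, 0.05% BSA; 1 h at r.t. ATP produced was read by luciferase luminescence. AC50 values were normalized to DMSO (uninhibited enzyme) and no-enzyme controls.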

hPK-M2 [2] = target: T1, hPK-M2; experiment: Fluorescent pyruvate kinase-lactate dehydrogenase (LDH) coupled secondary assay; assay type: biochemical; details: for LDH hPK, M2 Max. Res.: % activation at 57 μM of compound; for Emax: read-out: maximum response, LDH assay
Method: Fluorescent Pyruvate Kinase-Lactate Dehydrogenase Coupled Secondary Assay.
Plates were immediately placed in ViewLux (Perkin Elmer) and NADH fluorescence was determined at 30 second exposure intervals for between 3 and 6 minutes. Data were normalized to the uninhibited and EC100 activation using known activators such as fructose-1,6-bis-phosphate. […] Data was collected on the Perkin Elmer Viewlux.

[3] = luminescent pyruvate kinase-luciferase coupled assay (KinaseGlo), tables, read-out: hPK, M2 AC50
[4] = tables, read-out: LDH hPK, M2 AC50
[5] = luciferase-coupled assay, relative to activation by FBP
[6] = luciferase-coupled assay, read-out: AC50

Structure (SMILES)	activation at 57 µM (hPK-M2 [1]) [%]	AC50 (hPK-M2 [1]; [3]) [µM]	LDH hPK, M2 Max. Res. (hPK-M2 [2]) [%]	AC50 (hPK-M2 [2]; [4]) [µM]	Emax (hPK-M2 [1]; [5]) [%]	Emax (hPK-M2 [2]) [%]	AC50 (hPK-M2 [2]; read-out: AC50, LDH assay) [µM]	AC50 (hPK-M2 [1]; [6]) [µM]	hPK, M2 Max. Res. (hPK-M2 [1]) [%]	maximum response (hPK-M2 [1]; [5]) [%]	maximum response, LDH assay (hPK-M2 [2]) [%]
Nc1ccc(S(=O)(=O)N2CCCN(S(=O)(=O)c3ccc4c(c3)OCCO4)CC2)cc1 [Compound 125]	86.6	0.103	131.59	0.163	–	–	–	–	–	–	–
Nc1ccc(S(=O)(=O)N2CCN(S(=O)(=O)c3c(F)cccc3F)CC2)cc1 [Compound 123]	82.6	0.651	170.98	0.41	–	–	–	–	–	–	–
Cc1cc2c(s1)c1cnn(Cc3ccc(C(F)(F)F)cc3F)c(=O)c1n2C [Compound 120, 2,4-Methyl-6-[(2-fluoro-4-trifluoromethylphenyl)methyl]-4H-thieno[3,2-b]pyrrole[3,2-d]pyridazinone]	59.3 ± 18	–	–	–	< 80	< 80	–	–	–	–	–
Cc1cc2c(s1)c1cnn(Cc3ccc(F)cc3F)c(=O)c1n2C [Compound 112, 2,4-Methyl-6-[(2,4-difluorophenyl)methyl]-4H-thieno[3,2-b]pyrrole[3,2-d]pyridazinone]	–	0.044 ± 0.01	–	–	–	217	0.17 ± 0.03	–	–	–	–
O=S(=O)(N[C@H]1CC[C@@H](NS(=O)(=O)c2c(F)cccc2F)CC1)c1ccc2c(c1)OCCO2 [Compound 38, N-((cis)-4-(2,6-difluorophenylsulfonamido)cyclohexyl)-2,3-dihydrobenzo[b][1,4]dioxine-6-sulfonamide]	60.7 ± 5.6	> 35	–	–	–	56 ± 11	7 ± 1.5	37.1 ± 5	–	–	–
Cn1c2cc([S+](C)[O-])sc2c2cnn(Cc3ccccc3F)c(=O)c21 (stereo not shown) [Compound 73, 2-Methylsulfinyl-4-methyl-6-[(2-fluorophenyl)methyl]-4H-thieno[3,2-b]pyrrole[3,2-d]pyridazinone]	97.9 ± 3.1	0.025 ± 0.01	–	–	–	211	0.19 ± 0.01	–	–	–	–
COc1ccc(Cn2ncc3c4sc(C)cc4n(C)c3c2=O)cc1 [Compound 111, 2,4-Methyl-6-[(4-methoxyphenyl)methyl]-4H-thieno[3,2-b]pyrrole[3,2-d]pyridazinone]	96.2 ± 2.5	0.037 ± 0.01	–	–	–	258	0.23 ± 0.04	–	–	–	–
Cc1cc2c(s1)c1cnn(Cc3ccc(C(F)(F)F)cc3)c(=O)c1n2C [Compound 110, 2,4-Methyl-6-[(4-trifluoromethylphenyl)methyl]-4H-thieno[3,2-b]pyrrole[3,2-d]pyridazinone]	56.1 ± 5.4	0.553 ± 0.13	–	–	–	77	2.2	–	–	–	–
COc1cc(F)c(S(=O)(=O)N2CCN(S(=O)(=O)c3ccc(N)cc3)CC2)c(F)c1 [Compound 139]	–	0.13	166.00	0.183	–	–	–	–	92.46	–	–
CC(=O)c1cc2c(s1)c1cnn(Cc3ccccc3F)c(=O)c1n2C [Compound 87, 2-Acetyl-4-methyl-6-[(2-fluorophenyl)methyl]-4H-thieno[3,2-b]pyrrole[3,2-d]pyridazinone]	108 ± 4.9	0.011	–	–	–	200	0.15 ± 0.03	–	–	–	–
O=C1CN(S(=O)(=O)c2c(F)cccc2F)CCN1S(=O)(=O)c1ccc2c(c1)OCCO2 [Compound 49, 4-(2,6-difluorophenylsulfonyl)-1-(2,3-dihydrobenzo[b][1,4]dioxin-6-ylsulfonyl)piperazin-2-one]	105 ± 9	0.114 ± 0.02	–	–	–	87 ± 37	0.44 ± 0.24	–	–	–	–
Cn1c2cc(CO)sc2c2cnn(Cc3ccccc3F)c(=O)c21 [Compound 85, 2-Hydroxylmethyl-4-methyl-6-[(2-fluorophenyl)methyl]-4H-thieno[3,2-b]pyrrole[3,2-d]pyridazinone]	103 ± 7.2	0.048 ± 0.01	–	–	–	155	0.22 ± 0.03	–	–	–	–
CC(C)c1cc2c(s1)c1cnn(Cc3ccccc3F)c(=O)c1n2C [Compound 69, 2-Isopropyl-4-methyl-6-[(2-fluorophenyl)methyl]-4H-thieno[3,2-b]pyrrole[3,2-d]pyridazinone]	106 ± 6.2	0.142 ± 0.02	–	–	100	302	1.8	–	–	–	–
O=S(=O)(c1cccc(O)c1)N1CCN(S(=O)(=O)c2c(F)cccc2F)CC1 [Compound 140]	–	0.183	148.41	0.183	–	–	–	–	89.61	–	–
COc1cc(F)c(S(=O)(=O)N2CCCN(S(=O)(=O)c3cccc(N)c3)CC2)c(F)c1 [Compound 141]	–	0.206	157.96	0.146	–	–	–	–	93.20	–	–
Cn1c2ccsc2c2ncn(Cc3ccccc3F)c(=O)c21 [Compound 100, 4-Methyl-6-[(2-fluorophenyl)methyl]-4H-thieno[3,2-b]pyrrole[3,2-d]pyrimidinone]	–	–	–	–	< 80	< 80	–	–	–	–	–
Nc1cccc(S(=O)(=O)N2CCN(S(=O)(=O)c3ccc4c(c3)OCCO4)CC2)c1 [Compound 135]	–	0.0411	98.13	0.146	–	–	–	–	82.08	–	–
COc1ccc(S(=O)(=O)N2CCN(S(=O)(=O)c3c(F)cccc3F)CC2)cc1 [Compound 21, 1-(2,6-difluorophenylsulfonyl)-4-(4-methoxyphenylsulfonyl)piperazine]	102 ± 9.2	0.09	–	–	–	124 ± 30	0.211 ± 0.05	–	–	–	–
COc1cc(F)c(S(=O)(=O)N2CCN(S(=O)(=O)c3cccc(NC(C)=O)c3)CC2)c(F)c1 [Compound 133]	–	1.63	94.88	1.03	–	–	–	–	60.00	–	–
COc1cc(F)c(S(=O)(=O)N2CCCN(S(=O)(=O)c3ccc(N)cc3)CC2)c(F)c1 [Compound 143]	–	1.3	150.25	1.3	–	–	–	–	89.36	–	–
O=S(=O)(N[C@H]1CC[C@H](NS(=O)(=O)c2c(F)cccc2F)CC1)c1ccc2c(c1)OCCO2 [Compound 37, N-((trans)-4-(2,6-difluorophenylsulfonamido)cyclohexyl)-2,3-dihydrobenzo[b][1,4]dioxine-6-sulfonamide]	90.8 ± 12.4	–	–	–	–	56 ± 11	7 ± 1.5	2.11 ± 0.64	–	–	–
Nc1cccc(S(=O)(=O)N2CCN(S(=O)(=O)c3c(F)cccc3F)CC2)c1 [Compound 137]	–	0.0919	154.42	0.206	–	–	–	–	81.51	–	–
COc1cc(F)c(S(=O)(=O)N2CCN(S(=O)(=O)c3cccs3)CC2)c(F)c1 [Compound 144]	–	0.0366	125.28	0.0517	–	–	–	–	95.08	–	–
Nc1cccc(S(=O)(=O)N2CCCN(S(=O)(=O)c3ccc4c(c3)OCCO4)CC2)c1 [Compound 124]	88.9	0.0326	169.71	–	–	–	–	–	–	–	–
CC(=O)Nc1ccc(S(=O)(=O)N2CCCN(S(=O)(=O)c3ccc4c(c3)OCCO4)CC2)cc1 [Compound 132]	81.1	4.11	123.97	2.59	–	–	–	–	–	–	–
COc1ccc(Cn2ncc3c4sc(C)cc4n(C)c3c2=O)cc1F [Compound 121, 2,4-Methyl-6-[(3-fluoro-4-methoxyphenyl)methyl]-4H-thieno[3,2-b]pyrrole[3,2-d]pyridazinone]	–	–	–	–	–	–	1	0.225 ± 0.097	68.2 ± 7.9	68.2	135±20
COc1cc(F)c(S(=O)(=O)N2CCN(S(=O)(=O)c3cccc(N)c3)CC2)c(F)c1 [Compound 134]	–	0.0231	141.67	0.073	–	–	–	–	87.00	–	–
